# Data from patent publication US6987017B2, “Methods for producing L-isoleucine” (Massachusetts Institute of Technology, priority 1999, dated 2006).
# What was measured:
# [1] = system: C. glutamicum ATCC 21799 pAPE7 tdcB; type: cell-based, Corynebacterium glutamicum; details: defined medium with supplement (casamino acids 2 g·l^−1, amino acids 0.5 g·l^−1 each), 150 mg/l IPTG, flasks
# Experimental: Defined medium for Corynebacterium glutamicum contained the following ingredients (per liter): glucose, 35 g; NaCl, 2 g; citrate (trisodium salt, dihydrate), 3 g; CaCl2.2H2O, 0.1 g; MgSO4.7H2O, 0.5 g; Na2EDTA.2H2O, 75 mg; FeSO4.7H2O, 50 mg; 100× salt solution, 20 ml; K2HPO4, 4 g; KH2PO4, 2 g; (NH4)2SO4, 7.5 g; urea, 3.75 g; leucine 0.85 g; thiamine, 0.45 mg; biotin, 0.45 mg; pantothenic acid, 4.5 mg (pH 7.0). The salt solution contained the following ingredients (per liter): MnSO4, 200 mg; Na2B4O7.10H2O, 20 mg; (NH4)6Mo7O24.4H2O, 10 mg; FeCl3.6H2O, 200 mg; ZnSO4.7H2O, 50 mg; CuCl2.2H2O, 20 mg (pH 2.0). When appropriate, kanamycin (150 mg/liter) and isopropyl-β-D-thiogalactopyranoside (IPTG) (150 mg/l) was used.
# For the growth study with amino acid supplements, the defined medium was complemented with Bacto® casamino acids (Difco, Detroit, Mich.) at a concentration of 2 g·l^−1 or with amino acid (alanine, glycine, methionine or valine) at a concentration of 0.5 g·l^−1 each.
# Valine and methionine were chosen to test due to their direct connection with the isoleucine pathway, and alanine and glycine for their indirect connection through the use of pyruvate, which is also a substrate for the isoleucine pathway.
# [2] = system: C. glutamicum ATCC 21799 harboring pAPE13; experiment: IPTG induction of threonine dehydratase in batch fermentation of ATCC 21799 (pAPE13); type: cell-based, Corynebacterium glutamicum; details: IPTG 150 mg/l added at 1.5 g cell dry weight·l^−1
# Experimental: (§1) For determination of threonine dehydratase activity, the assay mixture contained 40 mM threonine, 1 mM pyridoxal phosphate, crude extract and 100 mM potassium phosphate buffer, pH 8.0 in a final volume of 1 ml. The reaction was started with the addition of threonine and terminated by the addition of 1 ml solution containing 1% semicarbazide and 0.9% sodium acetate. After a 15 min incubation at room temperature, the amount of alpha-ketobutyrate formed at various intervals was measured spectrophotometrically as its semicarbazone derivative at 254 nm (=0.52 mmol·cm^−1). Relevant standards and controls were carried out in the same manner. For specific determination of catabolic threonine dehydratase activity, the assay mixture contained 20 mM isoleucine in order to inhibit the anabolic threonine dehydratase.
# (§2) In FIGS. 3-6, the results of the enzymatic assays are expressed in terms of relative expression of threonine dehydratase compared to wild type expression as the ratio between the specific activity of the enzyme of a strain and the specific activity of the wild type. Each assay was replicated five times, and the results were reproducible within 15%.
# (§3) Starter cultures of Corynebacterium glutamicum were prepared by transferring one colony from LB agar plates to 5 ml of LB medium. These cultures were incubated for two days at 30° C. and 200 rpm. […]
# [3] = system: C. glutamicum ATCC 21799 harboring pAPE7; experiment: IPTG induction of catabolic threonine dehydratase in batch fermentation of ATCC 21799 (pAPE7); type: cell-based, Corynebacterium glutamicum; details: IPTG 150 mg/l
# Experimental: as §1, §2, §3
# C. glutamicum ATCC 21799 = experiment: IPTG addition in batch fermentation of wild type ATCC 21799; type: cell-based, Corynebacterium glutamicum; details: wild type culture, IPTG 150 mg/l
# Experimental: as §1
# In FIGS. 3-6, the results of the enzymatic assays are expressed in terms of relative expression of threonine dehydratase compared to wild type expression as the ratio between the specific activity of the enzyme of a strain and the specific activity of the wild type. […]
# C. glutamicum ATCC 21799 was grown twice in defined medium in a 4-liter reactor. […] A concentration of isoleucine of 50 mg·l^−1 was detected at the end of both cultures. Oxygenation of the cultures being sufficient, neither lactate nor acetate was detected during the fermentation.
# AHAS = details: Eggeling et al. 1987; cited from earlier work
# [4] = target: T1, catabolic threonine dehydratase (Escherichia coli, UniProt P0AGF6); experiment: Isoleucine sensitivity of catabolic threonine dehydratase (tdcB) in crude extracts of C. glutamicum ATCC 21799 (pAPE7); type: biochemical, E. coli
# T1 construct: tdcB and ilvA coding regions were amplified by the Polymerase Chain Reaction (PCR); expressed in transfected cells; host or cells: Corynebacterium glutamicum ATCC 21799 carrying pAPE7 (trc:tdcB); cell-free crude extract
# T1 sequence (P0AGF6 whole entry): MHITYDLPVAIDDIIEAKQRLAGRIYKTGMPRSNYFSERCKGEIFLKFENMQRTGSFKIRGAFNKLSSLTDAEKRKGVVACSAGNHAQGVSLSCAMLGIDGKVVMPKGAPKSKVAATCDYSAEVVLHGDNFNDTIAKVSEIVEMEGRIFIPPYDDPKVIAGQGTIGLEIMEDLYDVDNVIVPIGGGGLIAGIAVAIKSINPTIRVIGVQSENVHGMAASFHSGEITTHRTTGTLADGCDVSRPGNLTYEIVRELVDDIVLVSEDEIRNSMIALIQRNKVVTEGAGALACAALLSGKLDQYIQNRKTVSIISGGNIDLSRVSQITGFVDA
# Experimental: (§4) Enzyme assays were performed with cell free crude extracts, prepared by the following method. Cells were harvested by centrifugation for 10 min at 5000×g at 4° C. and washed with 10 ml of the enzyme assay buffer (100 mM Tris-HCl, pH 7.5, containing 20 mM KCl, 5 mM MnSO4, 0.1 mM EDTA, and 2 mM dithiothreitol) (Jetten, M. S. M., et al., Appl. Microbiol. Biotechnol. 41:47-52 (1994)). The cell pellet was resuspended in the same buffer containing a protease inhibitor cocktail (Boehringer Mannheim, Germany) so that the final concentration was 20 g dry cell weight·l^−1. Resuspended cells were disrupted with a glass bead mixer (5100 Mixer-Mill, SPEX, Metuchen, N.J.). 2.5 ml of bacterial suspension was poured in a frozen steel vial containing 5 g of cold 106 μm-diameter glass beads (Sigma) and one stainless steel ball bearing. The vials containing bacterial suspension and glass beads were vigorously shaken at 4° C. using the mixer by 10 cycles of 30 sec shaking separated by rest cycles of one minute. Cell debris were removed by centrifugation for 20 min at 47000×g at 4° C. The supernatant (crude extract) was then tested for enzyme activity. Protein concentrations were determined by the method of Bradford (Bradford, M. M., Anal. Biochem. 72:248-254 (1976)) with the Bio-Rad (Hercules, Calif.) protein assay kit using bovine serum albumin as a standard.
# (§5) For determination of threonine dehydratase activity, the assay mixture contained 40 mM threonine, 1 mM pyridoxal phosphate, crude extract and 100 mM potassium phosphate buffer, pH 8.0 in a final volume of 1 ml. […] After a 15 min incubation at room temperature, the amount of alpha-ketobutyrate formed at various intervals was measured spectrophotometrically as its semicarbazone derivative at 254 nm (=0.52 mmol·cm^−1). […]
# In order to confirm the insensitivity to isoleucine of catabolic dehydratase expressed in a lysine producing strain of C. glutamicum, threonine dehydratase activities were measured in crude extracts of strains ATCC21799 and ATCC21799 carrying pAPE7 at different concentrations of isoleucine (FIG. 3). […]
# [5] = target: T2, Anabolic threonine dehydratase (Corynebacterium glutamicum, UniProt Q04513); experiment: Isoleucine sensitivity of anabolic (native) threonine dehydratase in crude extracts of C. glutamicum ATCC21799; type: biochemical; details: ATCC 21799 crude extract
# T2 construct: endogenous in cells; host or cells: Corynebacterium glutamicum ATCC 21799; cell-free crude extract
# Experimental: as §4, with “2.5 ml of bacterial suspension was poured in a frozen steel vial containing 5 g of cold 106 μm-diameter glass beads (Sigma) and one stainless steel ball bearing. The vials containing bacterial suspension and glass beads were vigorously shaken at 4° C. using the mixer by 10 cycles of 30 sec shaking separated by rest cycles of one minute. Cell debris were removed by centrifugation for 20 min at 47000×g at 4° C. The supernatant (crude extract) was then tested for enzyme activity.” left out
# as §5
# tdcB gene product = target: T3, tdcB gene product (Escherichia coli, UniProt P0AGF6); experiment: Threonine dehydratase activity of E. coli AB1255 (pAPE5) crude extracts in the presence of isoleucine; type: biochemical; details: isoleucine up to 47 mM; consistent activity
# T3 construct: tdcB and ilvA coding regions were amplified by the Polymerase Chain Reaction (PCR); expressed in transfected cells; host or cells: E. coli AB1255 carrying pAPE5 (pTrc99a-based, trc:tdcB); cell-free crude extract
# T3 sequence (P0AGF6 whole entry): as above
# Experimental: as §4, with “2.5 ml of bacterial suspension was poured in a frozen steel vial containing 5 g of cold 106 μm-diameter glass beads (Sigma) and one stainless steel ball bearing. The vials containing bacterial suspension and glass beads were vigorously shaken at 4° C. using the mixer by 10 cycles of 30 sec shaking separated by rest cycles of one minute. Cell debris were removed by centrifugation for 20 min at 47000×g at 4° C. The supernatant (crude extract) was then tested for enzyme activity.” left out
# as §5
# [6] = target: T4, endogenous threonine dehydratase (encoded by ilvA) (Corynebacterium glutamicum, UniProt Q04513); details: C. glutamicum MH20-22B; Morbach et al. 1995; cited from earlier work
# T4 construct: host or cells: Corynebacterium glutamicum MH20-22B
# T4 sequence (Q04513 1-436): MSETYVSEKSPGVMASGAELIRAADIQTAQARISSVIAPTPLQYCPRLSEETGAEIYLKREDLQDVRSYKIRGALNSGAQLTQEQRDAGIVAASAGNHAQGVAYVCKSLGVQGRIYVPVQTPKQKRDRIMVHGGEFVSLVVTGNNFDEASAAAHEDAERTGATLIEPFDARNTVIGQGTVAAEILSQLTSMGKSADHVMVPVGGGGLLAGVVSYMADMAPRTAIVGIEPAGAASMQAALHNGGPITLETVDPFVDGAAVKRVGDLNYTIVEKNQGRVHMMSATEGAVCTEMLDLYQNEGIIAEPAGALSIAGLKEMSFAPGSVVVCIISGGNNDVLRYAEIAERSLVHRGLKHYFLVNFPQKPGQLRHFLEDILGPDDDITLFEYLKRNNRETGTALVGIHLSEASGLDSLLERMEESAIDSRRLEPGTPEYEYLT
# [7] = target: mutated threonine dehydratase V323A (Corynebacterium glutamicum, UniProt Q04513, V323A); details: 50 mM isoleucine; Morbach et al. 1995; cited from earlier work
# mutated threonine dehydratase V323A, sequence (Q04513 whole entry V323A): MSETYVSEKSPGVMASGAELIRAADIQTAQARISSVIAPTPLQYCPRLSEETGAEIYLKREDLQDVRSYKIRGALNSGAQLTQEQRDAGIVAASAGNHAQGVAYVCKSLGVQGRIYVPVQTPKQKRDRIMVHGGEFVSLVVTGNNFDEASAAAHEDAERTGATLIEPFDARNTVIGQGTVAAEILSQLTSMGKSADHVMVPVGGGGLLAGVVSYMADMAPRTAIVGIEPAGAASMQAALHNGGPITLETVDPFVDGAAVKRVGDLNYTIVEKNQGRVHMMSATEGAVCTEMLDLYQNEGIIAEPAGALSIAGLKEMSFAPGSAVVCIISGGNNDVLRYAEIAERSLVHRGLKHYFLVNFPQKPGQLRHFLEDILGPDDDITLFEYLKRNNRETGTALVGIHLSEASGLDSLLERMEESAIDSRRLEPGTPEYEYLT
compound,measurement,setting,value
"C[C@H](N)C(=O)O [Alanine, alanine]",Specific growth rate,[1],0.17 h⁻¹
"NCC(=O)O [Glycine, glycine]",Specific growth rate,[1],0.17 h⁻¹
"CC(C)S[C@@H]1O[C@H](CO)[C@H](O)[C@H](O)[C@H]1O [IPTG, isopropyl-β-D-thiogalactopyranoside]",increase in the level of threonine dehydratase after addition of IPTG,[2],20 fold
same,catabolic threonine dehydratase concentration relative to original enzyme after addition of IPTG,[3],15 fold
same,effect of IPTG addition on threonine dehydratase,C. glutamicum ATCC 21799,did not lead to an increase
"CSCC[C@H](N)C(=O)O [Methionine, methionine]",Specific growth rate,[1],0.26 h⁻¹
"CC(C)[C@H](N)C(=O)O [Valine, valine]",Specific growth rate,[1],0.24 h⁻¹
CCC(=O)C(=O)O [alpha-ketobutyrate],affinity of AHAS for alpha-ketobutyrate relative to pyruvate,AHAS,3 fold
CC[C@H](C)[C@H](N)C(=O)O [isoleucine],remaining activity at 50000 µM,"[4]; 50 mM isoleucine, read-out: remaining activity of catabolic threonine dehydratase of E. coli",70 to 80%
same,inhibition at 200000 µM,[4]; 200 mM isoleucine,40%
same,retained original activity of catabolic threonine dehydratase,[4]; 200 mM isoleucine,60%
same,isoleucine concentration that totally inhibits the native (anabolic) threonine dehydratase,[5],15 mM
same,threonine dehydratase activity of AB1255 (pAPE5) extracts in the presence of isoleucine,tdcB gene product,about 80 μmol product·min^−1·mg protein^−1
same,isoleucine concentration giving complete inhibition of the endogenous threonine dehydratase,[6],5 mM
same,remaining activity of mutated threonine dehydratase V323A,[7],22%
